SMILES strings stand for the structures.

This data set in a line: Human HepG2 cell viability assay in 384 well format. The arrangement: dose 125 nL, time 70.5 hour; concentration not given beside the values. As to conditions: HepG2 cells, read-out: Inhibition. The data set is classed as toxicity, cell-based.
Consider `CN1C(=O)CC[C@@H]2[C@H]1CCN2S(=O)(=O)Cc1ccccc1`, for which the cytotoxicity at 70.5 h was 47.7%.

For the compound `CN(C)C(=O)CCNC(=O)Nc1sc2ccccc2c1Cl`, the cytotoxicity at 70.5 h was -7.68%.

Consider `CN1C[C@@H](C(=O)NC2CCCC2)[C@@]2(COc3ccc(F)cc3C2=O)C1`, for which the cytotoxicity at 70.5 h is -6.62%.

With `CCOC(=O)c1nc(CC(=O)Nc2ccccc2)no1`, the cytotoxicity at 70.5 h is -17.6%.

As for `Cc1cnn(CCNCC(=O)NCCOc2ccccc2)c1`, the cytotoxicity at 70.5 h came out at 39.9%.

For the compound `O=c1oc(-c2cccs2)nn1CC(O)c1ccc2c(c1)CCC2` (stereo not given), the cytotoxicity at 70.5 h came out at 14.5%.

Regarding `O=c1[nH]nc(SCC2CCCO2)n1C1CC1` (stereo not given), the cytotoxicity at 70.5 h is -6.11%.

Consider `CC1(C(=O)NCc2cccnc2Oc2ccc(F)cc2F)CCCNC1` (stereo not given), for which the cytotoxicity at 70.5 h is -18.2%.

For `Cc1nc2cc(C3CCOCC3)nn2c(NCC2COCCO2)c1C` (stereo not given), the cytotoxicity at 70.5 h turned out to be 20.9%.

As to `Cc1cc(C(=O)N2CCCC(c3cc(C(F)(F)F)[nH]n3)C2)[nH]n1` (stereo not given), the cytotoxicity at 70.5 h turned out to be 3.57%.

As to `CCC1CNCc2cc3c(OC)ccc(OC)c3nc2O1` (stereo not given), the cytotoxicity at 70.5 h turned out to be 12.3%.

`CC(C)CN1C(=O)CO[C@@H]2CN(C(=O)N3CCOCC3)C[C@H]21`: the cytotoxicity at 70.5 h was -2.58%.

With `CO[C@H]1C[C@@H](O)C12CCN(Cc1nc(C(F)(F)F)no1)CC2`, the cytotoxicity at 70.5 h is -10.9%.

For the compound `CC(NCCN1CCN(C(=O)C2CCCC2)CC1)c1nccs1` (stereo not given), the cytotoxicity at 70.5 h amounted to 7.3%.

For the compound `OC1(CN2CCCCC2)CCN(Cc2c[nH]c(CC3CCCC3)n2)C1` (stereo not given), the cytotoxicity at 70.5 h is -8.48%.

As to `CCc1ncc(C(=O)N(C)CCc2nc3cc(OC)ccc3[nH]2)cn1`, the cytotoxicity at 70.5 h worked out at 11.2%.

For the compound `COc1c(CNC2CCN(C(C)(C)C)CC2)c(C(C)C)nn1C`, the cytotoxicity at 70.5 h is 3.99%.

For the compound `CCc1oc(C(=O)NCCSc2ncn[nH]2)cc1CN1CCCC1`, the cytotoxicity at 70.5 h was -9.51%.

For `CCC(CC)(CNC(=O)OC(C)(C)C)NC(=O)C1CCOCC1`, the cytotoxicity at 70.5 h was -5.37%.

On to `COC(=O)CCN(CC1CCOC1)C1CC1` (stereo not given), for which the cytotoxicity at 70.5 h stood at 0.428%.

As to `COc1cc(C)nc(N2CCN(C(=O)CCc3ccncc3)CC2)n1`, the cytotoxicity at 70.5 h was 28%.

As to `COc1ccc(C2CNCCN2C(=O)c2cccc3cccnc23)cc1` (stereo not given), the cytotoxicity at 70.5 h amounted to 12.4%.

As to `Cc1cc(OCC(=O)N2CCCC(c3nc(C)c(C)s3)C2)no1` (stereo not given), the cytotoxicity at 70.5 h came to 11.5%.

As to `CCn1c(CN2CCN(CC(N)=O)CC2)nc2c(F)cccc21`, the cytotoxicity at 70.5 h is -0.996%.

With `Cc1ccoc1C(=O)N1CCNCC1C(=O)NCc1ccncc1` (stereo not given), the cytotoxicity at 70.5 h was found to be 3.11%.

Regarding `CC(NC(=O)CSCC#N)c1ccccc1` (stereo not given), the cytotoxicity at 70.5 h was 6.84%.

Consider `Nc1cc(C(=O)NCC2CCN(CCc3ccccc3)C2)ccn1` (stereo not given), for which the cytotoxicity at 70.5 h was -6.39%.

Consider `COc1cc(CNC2CCc3nc(C)nn3C2)cc2c1OCCO2` (stereo not given), for which the cytotoxicity at 70.5 h is -9%.

`CSC(C)Cc1c(-c2ccccc2)ncn1CCCNc1cccnc1` (stereo not given): the cytotoxicity at 70.5 h is -0.408%.

As for `COc1ccc(C(C)Nc2ncnc3c2NC(=O)CN3)cc1` (stereo not given), the cytotoxicity at 70.5 h is -14.1%.

As for `O=C1CCCN1Cc1nnc2n1CCCN(C(=O)c1ccc[nH]1)C2`, the cytotoxicity at 70.5 h was found to be 5.33%.

Consider `CC(C)CCN1C2(CCN(Cc3nccs3)C2)c2ccccc2S1(=O)=O` (stereo not given), for which the cytotoxicity at 70.5 h is -11.4%.

For the compound `Cn1cccc(NC(=O)N2CCC(CSc3ccccc3)C2)c1=O` (stereo not given), the cytotoxicity at 70.5 h was -13.5%.

For the compound `Cn1ccc(CS(=O)(=O)Cc2cccc(F)c2)cc1=O`, the cytotoxicity at 70.5 h was -11%.

For the compound `CN(C(=O)c1ccc(Cl)c(S(C)(=O)=O)c1)c1ccccc1`, the cytotoxicity at 70.5 h came out at 0.806%.

On to `COCCCN1C(=O)CC[C@H]2CN(c3ccnc4ccccc34)CC[C@H]21`, for which the cytotoxicity at 70.5 h was -5.09%.

In the case of `CN(Cc1cc2n(n1)CCCNC2)Cc1n[nH]c2c1CCC2`, the cytotoxicity at 70.5 h was -13.3%.

In the case of `Cc1c(C(C)NC(=O)Nc2ccc(F)c(F)c2)cnn1C` (stereo not given), the cytotoxicity at 70.5 h is -3.96%.

Turning to `COCCCNC(=O)Nc1ccc(F)c(C(N)=O)c1`, the cytotoxicity at 70.5 h stood at 0.915%.

As to `COCCN(CCOC)C(=O)c1ccoc1C`, the cytotoxicity at 70.5 h was -6.19%.

For the origin of these results see ChEMBL document CHEMBL3507680, “University of Dundee, Gates Library screen for HepG2 cell viability”.
